The structures appear in SMILES notation. Entries after “also recorded” stand apart in the source; their conditions may differ. Read-outs that look alike come from different tables or passages of the source.

Experiment [1] has as its system PC12 SOD1^G93A cells. Briefly: Neuroprotection against MG-132-induced toxicity in PC12 cells expressing mutant SOD1^G93A (calcein-AM viability). The experiment is classed as cell-based. The settings on record: Rattus norvegicus, PC-12, MG-132-induced toxicity, inactive photoreactive controls, read-out: EC50. The procedure:
With this information in hand, we implemented a phenotypic drug discovery approach to identify a novel therapeutic for treating ALS. The study employed a rat PC12 cell-based assay that expresses SOD1^G93A mutation for screening a chemical library of more than 50,000 compounds to identify promising hits (Figure 1 compounds 3 and 4). The hits are based on attenuating proteasome inhibitor MG-132-induced SOD1^G93A cellular toxicity.
Viability EC50 values were determined according to the previously reported assay procedure.[43] Briefly, PC12 cells were seeded at 15,000 cells/well in 96-well plates, and the medium was changed to remove the doxycycline 4 days prior to compound addition. Compounds were assayed in 12-point dose–response experiments to determine the potency and efficacy. The highest compound concentration tested was 32 μM, which was decreased by half with each subsequent dose. After a 24 h incubation with the analytes, MG-132 (400 nM) was added and the cells were incubated at 37 °C for 24 h. The cells were washed twice with PBS. Calcein-AM was added at a final concentration of 1 μM for 20 min at room temperature, and the fluorescence intensity was read in a POLARstar fluorescence plate reader (BMG). EC50 values were determined by standardizing fluorescent signal to DMSO treated controls. […] The presented data represent the mean average of duplicate experiments.

For experiment [2], the target named is T1, 25 kDa protein band in PC12 SOD1^G93A cells (Rattus norvegicus, UniProt P62260).
T1 construct: we identified a 25 kDa covalently modified protein band in the PC12 SOD1^G93A cell line; endogenous in cells; host or cells: PC12-SOD1^G93A cells (live-cell UV photolabeling, then lysis)
T1 sequence (P62260 1-255): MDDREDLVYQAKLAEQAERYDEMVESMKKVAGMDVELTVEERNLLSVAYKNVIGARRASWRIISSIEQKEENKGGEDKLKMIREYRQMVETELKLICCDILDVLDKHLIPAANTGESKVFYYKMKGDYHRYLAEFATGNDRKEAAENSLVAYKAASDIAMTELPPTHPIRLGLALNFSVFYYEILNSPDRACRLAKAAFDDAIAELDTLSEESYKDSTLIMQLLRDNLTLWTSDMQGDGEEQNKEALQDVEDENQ
Briefly: Competition of PRAPP photoaffinity labeling of the 25 kDa band in PC12-SOD1^G93A cells. The experiment is classed as binding. The conditions noted are these: for concentration-dependent disappearance of the 25 kDa protein band in competition with PRAPP: scenario 1. The procedure:
PC12-SOD1^G93A cells were cultured and grown to 90% confluency (in 6-well plates) and washed once with PBS followed by the addition of serum medium containing the appropriate analyte at the indicated concentrations. Three incubation scenarios were studied (at 37 °C): Scenario 1) 12 h preincubation with PRAPP in the absence of MG-132; Scenario 2) 12 h preincubation with PRAPP in the absence of MG-132 followed by an additional 24 h incubation (control); and Scenario 3) 12 h preincubation with PRAPP followed by the addition of MG-132 (100 nM) and an additional 24 h incubation. After incubation, the medium was discarded and cells were washed with PBS (1 × 300 μL). Fresh serum-free medium was added, and the cells were irradiated with UV light (312 nm, 120 V, 60 Hz, 0.2 A [Spectroline model EB-160C], distance ∼4 cm) for 15 min. The medium was removed, cells were washed with PBS (2 × 500 μL), and 200 μL of lysis buffer containing Tris HCl (25 mM, pH 7.6), NaCl (150 mM), 1% NP40, 1% sodium deoxycholate, 0.1% SDS, and protease inhibitor cocktail (Sigma-Aldrich, 1:100 v/v) was added to each well. Complete lysis was observed by a microscope after 10 min at 4 °C with agitation. Each lysate was centrifuged at 4 °C for 5 min at 13,000 rpm, and the resulting supernatant was concentrated with a centrifugal filter (Amicon Ultra Centrifugal Filters 3K cutoff, Millipore), normalized to 1.0 mg/mL by the Bradford assay, and analyzed immediately or stored at −80 °C for subsequent analysis.
In a darkened (wrapped with aluminum foil) Eppendorf tube, each lysate (30 μL [30 μg]) was incubated with 10 μL of the freshly prepared “click” premix containing CuSO4 (5 mM), sodium ascorbate (5 mM), TBTA (200 μM), and N3–Alexa-647 (50 μM) were added to PBS (50 mM, pH 7.4). The corresponding final concentrations within the lysate click incubation were: CuSO4 (1.25 mM), sodium ascorbate (1.25 mM), TBTA (50 μM), and N3–Alexa-647 (12.5 μM). The mixture was vortexed briefly and incubated for 1.5 h at 37 °C in the dark. NuPAGE LDS sample loading buffer (4 × 13 μL) was added, and the mixture was denatured in boiling water for 10 min. SDS-PAGE was performed on Novex Bis-Tris gel 4–12% with MES SDS running buffer (90 V constant for 30 min followed by 100 V for 90 min; load volume = 25 μL). Protein standards that gave appropriate visible and fluorescent bands for our application included the BioRad Precision Plus All Blue Protein Standard and Novex Pre-Stained Protein Standard. In-gel fluorescence was monitored (excitation λ = 635 nm; emission λ = 670 nm) using a Typhoon 9400 (GE Healthcare) fluorimager. Densitometric analysis and image refinement were carried out as needed using ImageJ software (NIH, open source). The contrast and brightness of images were modified using ImageJ and/or Microsoft Word to enhance visualization for publication purposes.

Experiment [3] has as its system PC12 SOD1^G93A cells. The settings on record: neuroprotection against MG-132-induced SOD1^G93A toxicity in PC12 cells, cited from earlier work.
In the next experiment the target is T2, 14-3-3-E (Homo sapiens, UniProt P62258).
T2 construct: His-tag (TEV-cleavable) (cleaved yes); host or cells: E. coli (BL21)
T2 sequence (P62258 1-255): T1 sequence (P62260 1-255)
The experiment in a line: Fluorescent thermal shift assay (FTSA) with 14-3-3-E. In kind it is binding. The conditions noted are these: SYPRO orange. Here is the method:
His-tagged 14-3-3-E, B, and H plasmids were purchased from Addgene (plasmid ID# 31562, 39128, and 38814, respectively). E. coli (BL21) were transformed with extracted plasmids via heat shock and plated on selected media. Individual colonies were selected, grown, and sequenced to confirm gene presence. 1 L cultures were grown to an OD600 of 0.6 at 37 °C and 220 rpm. Protein expression was induced with 1 mM IPTG and expressed for 12 h at 100 rpm and room temperature (approximately 25 °C). Cells were spun down at 4000 rpm for 15 min at 4 °C and resuspended in lysis buffer containing 50 mM Tris (7.4), 150 mM NaCl, 0.08% DDM, 5 mM imidazole, and 5% glycerol (with an EDTA-free complete mini protease inhibitor cocktail). Cells were lysed via sonication, and the lysate was separated from cell debris by centrifugation at 15,000 rpm, 4 °C, for 45 min. The His-tagged protein was purified using QIAGEN Ni-NTA superflow columns, and the His-tag was removed with TEV protease. His-tag-removed proteins were further purified by size exclusion chromatography. His tag removal and size exclusion chromatography purification were done at the Northwestern University Protein Production core. 14-3-3-Q and 14-3-3-G proteins were purchased from Abchem (catalog numbers ab85270 and ab53869, respectively).
All of the FTSA experiments were conducted in HEPES buffer (60 mM HEPES, 150 mM NaCl, pH 7.4). A DMSO balanced 8-point dilution series of the compound in HEPES buffer was prepared in a 96-well assay plate (200, 100, 50, 25, 12.5, 6.25, 3.125, and 0 μM). Then, a 5 μL volume of the dilution series was transferred to a 384-well PCR plate using a multichannel pipet, and the plate was centrifuged at 1000 rpm for 2 min (the plate was covered with an adhesive aluminum seal). The protein sample was premixed at a concentration of 0.04 μg/μL with a 5X concentration of SYPRO orange in HEPES buffer, and a 5 μL aliquot was added to the compound wells. The plate was covered with an optical adhesive seal and was shaken for 2 min, followed by centrifugation at 1000 rpm for 2 min. The thermal scan was performed from 20 to 90 °C with a temperature gradient of 0.5 °C/min. The fluorescence was measured on a Bio-Rad CFX384 real-time PCR instrument.

Experiment [4] relates to 25 kDa covalently modified band in HAP1 cells. Briefly: Photoaffinity labeling with HAP1 wild-type and Hsp27 knockout cells. In kind it is binding. The conditions noted are these: wild-type (WT) HAP1 cells. The text has this:
First, we conducted photoaffinity labeling studies with wild-type (WT) HAP1 cells to verify the existence of the 25 kDa covalent modification that we observed in PC12 cells.
Figure 7 Photoaffinity Labeling Experiments with HAP1 cells. […] The nonspecific background modifications remain unchanged with increasing concentration of P3, further confirming the 25 kDa covalently modified band as a true target; (B) comparison of the photoaffinity labeling experiments with HAP1 wild-type (WT) cells and Hsp27 knockout (KO) cells at 15 μM PRAPP concentration.

On the set-up of experiment [5]: method as in PMID 23828940. The conditions noted are these: cell lysate, original CETSA protocol; cited from earlier work.
The mark [6] stands for this setting: hits and leads of the authors' earlier work, read-out: EC50.

As for `C#CCN(Cc1c(F)c(F)c(N=[N+]=[N-])c(F)c1F)Cc1cc(=O)n(C(C)=O)n1C(C)=O` [IPC1, 1,1′-(5-(((4-Azido-2,3,5,6-tetrafluorobenzyl)(prop-2-yn-1-yl)amino)methyl)-3-oxo-1H-pyrazole-1,2(3H)-diyl)bis(ethan-1-one)], the EC50 in the experiment on PC12 SOD1^G93A cells [1] was over 16000 nM.
On to `C#CCNCc1c(F)c(F)c(N=[N+]=[N-])c(F)c1F` [IPC2, N-(4-Azido-2,3,5,6-tetrafluorobenzyl)prop-2-yn-1-amine], for which, in the experiment on PC12 SOD1^G93A cells [1], the EC50 was over 16000 nM.
For the molecule `CC(Oc1cc(C(F)(F)F)cc(C(F)(F)F)c1)C1CC(=O)CC(=O)C1` (stereo not drawn) [P1], in experiment [2] (30 μM PRAPP), the “concentration-dependent disappearance of the 25 kDa protein band in competition with PRAPP” value is given as “not compete out the 25 kDa covalently modified band in a concentration -dependent manner; also recorded: did not show a quantifiable concentration-dependent disappearance”. The “25 kDa band intensity in competition with PRAPP” value in experiment [2] (480 μM P1 concentration) is “slight reduction of the 25 kDa band intensity”. In addition, the EC50 in the experiment on PC12 SOD1^G93A cells [3] (setting [6]) is 300 nM. At 14-3-3-E, the “Tm shift (ΔTm)” value was “did not show a Tm shift”.
For `CN(Cc1cc(Cl)cc(Cl)c1)Cc1cc(=O)[nH][nH]1` [P3], in experiment [2] (30 μM PRAPP), the “competitor to PRAPP ratio at complete disappearance of the band” value was found to be 32. For the same molecule, the EC50 was 26700 nM in experiment [2] (30 μM PRAPP, scenario 1, n = 2, read-out: EC50 for the competition with PRAPP (25 kDa band intensity)) and 400 nM with PC12 SOD1^G93A cells [3] (leads of the authors' earlier work, read-out: EC50 (NP = neuroprotection)). The “competition of PRAPP labeling, band 1 around 25 kDa” value in experiment [4] is recorded as “concentration-dependent disappearance”.
`O=C1CC(=O)CC(c2ccc(F)cc2)C1` [compound 3]: in the experiment on PC12 SOD1^G93A cells [3] (setting [6]), the EC50 was 800 nM.
Take `Cc1cc(SCc2cc(=O)[nH][nH]2)c(C)cc1Cl` [compound 4]: in the experiment with PC12 SOD1^G93A cells [3] (setting [6]), the EC50 is 400 nM.
Turning to `CC1=NN(c2ccccc2)C(=O)C1` [edaravone, reference compound], the “concentration-dependent disappearance of the 25 kDa protein band in competition with PRAPP” value in experiment [2] (30 μM PRAPP) is “did not show a quantifiable concentration-dependent disappearance”.
On to `CN(Cc1cnc2nc(N)nc(N)c2n1)c1ccc(C(=O)N[C@@H](CCC(=O)O)C(=O)O)cc1` [methotrexate], for which the “drug concentration of maximum response in ITDR CETSA” value in experiment [5] was 100 to 250 µM.
Regarding `Cc1nc2ccc(CN(C)c3ccc(C(=O)N[C@@H](CCC(=O)O)C(=O)O)s3)cc2c(=O)[nH]1` [raltitrexed], in experiment [5], the “drug concentration of maximum response in ITDR CETSA” value is 100 to 250 µM.

The term EC50 denotes the concentration at which the effect is half-maximal.

(Values after article PMC10823514, “Target Identification of a Class of Pyrazolone Protein Aggregation Inhibitor Therapeutics for Amyotrophic Lateral Sclerosis” (ACS Central Science, 2023).)
